From patent publication EP4335840A1, “NEW CONTRAST AGENTS FOR USE IN DIAGNOSTIC IMAGING” (priority 2022, dated 2024)

Legend:
[1] = target: T1, OATP1B3 (Homo sapiens, UniProt Q9NPD5); assay: Uptake into stable transfected OATP1B3 HEK 293 cells; type: cell-based; settings: OATP1B3-HEK 293 cell uptake with Rifampicine
T1 sequence (Q9NPD5 1-702): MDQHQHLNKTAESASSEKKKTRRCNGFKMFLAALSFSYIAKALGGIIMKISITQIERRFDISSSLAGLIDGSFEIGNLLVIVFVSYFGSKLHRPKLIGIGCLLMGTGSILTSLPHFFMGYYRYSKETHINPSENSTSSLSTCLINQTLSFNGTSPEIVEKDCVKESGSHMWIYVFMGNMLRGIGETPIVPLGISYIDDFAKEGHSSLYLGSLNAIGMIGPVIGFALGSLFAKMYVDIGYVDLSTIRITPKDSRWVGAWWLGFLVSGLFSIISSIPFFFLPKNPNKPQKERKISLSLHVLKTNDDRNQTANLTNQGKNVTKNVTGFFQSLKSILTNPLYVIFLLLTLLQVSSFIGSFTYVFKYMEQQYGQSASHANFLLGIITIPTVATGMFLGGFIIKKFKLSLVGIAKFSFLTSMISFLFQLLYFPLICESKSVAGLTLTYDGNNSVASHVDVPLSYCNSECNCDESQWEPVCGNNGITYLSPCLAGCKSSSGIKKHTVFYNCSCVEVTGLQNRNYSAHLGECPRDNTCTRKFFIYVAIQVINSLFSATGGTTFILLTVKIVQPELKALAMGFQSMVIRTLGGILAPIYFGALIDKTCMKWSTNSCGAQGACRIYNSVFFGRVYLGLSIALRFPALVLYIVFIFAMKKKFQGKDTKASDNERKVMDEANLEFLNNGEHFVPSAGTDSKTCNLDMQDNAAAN

[2] = Water solubility in aqueous buffer; type: physicochemical; settings: aqueous buffer 10 mM Tris-HCl, pH 7.4, 20°C; Gd by ICP-MS
Procedure: The exploratory water solubility of the compounds is determined at room temperature (20°C) in 0.5 mL buffer solution (10 mM Tris-HCI, pH 7.4) in the microcentrifuge tubes (Eppendorf, 2.0 mL safe-lock caps). The solid compounds were added stepwise to the buffer solution. More substance is added once all the suspended material is dissolved until an equilibrium between undissolved and dissolved substance is reached. The suspension was mixed using a shaker (Heidolph Reax 2000) and treated 5 min in an ultrasound bath (Bandelin, Sonorex Super RK255H). The Gadolinium concentration of the test substance in the clear solution is measured by ICP-MS. Table 1: Solubilities of compounds in aqueous buffer at 20°C (pH 7.4).

[3] = target: T1, OATP1B3; assay: Uptake into stable transfected OATP1B3 HEK 293 cells; type: cell-based; settings: 100 µM, 40 min, relative to RC1 (Gd-EOB-DTPA)
Procedure: Human transfected OATP1B3 human embryonic kidney 293 cells (OATP1B3 HEK 293, SLCO1B3, Entrez Gene ID: 28234) were used (Leonhardt M et al. Drug Metab Dispos. 2010 Jul;38(7):1024-8). The following culture medium was used: 500 mL DMEM (Dulbecco's Modified Eagle Medium - high Glucose, D6429), 50 mL FCS (fetal bovine serum, Fa. Sigma, F7524), 5.8 mL G418 (Geneticin, Fa. Gibco 10131-027) and 5 mL Pen-Strep. (Penicillin-Streptomycin, Fa. Gibco, Ref 15140-122). Cryopreserved cells were shortly thawed in water bath and diluted in 10 mL warm culture medium (37°C). After medium change the cells were grown for 3d in a 25 cm^2 cell culture flask. After 3 to 5d the cells were transferred into 75 cm^2 flasks. For the splitting of cells these were incubated with 1.5 mL trypsin (Trypsin-EDTA (1x) 0,05%, Ref 25300-054 100ml, Fa. Gibco) for 3-5 min in the incubator (37°C, 5% CO2 and […]). After centrifugation and washing with medium the cells were counted (50 µL cell suspension and 50 µL trypan blue (Trypan Blue Solution, 93595-50ml, Fa. Fluka). Cells were cultured (1×10^5 cells/well) in poly-D-lysine coated 24-well plates (Fa. Corning, Ref: 354414) in 1.5 mL medium per well. After 48 hours in the incubator the medium was changed and 1.5 mL/well sodium butyrate containing medium were added (40 mL culture medium plus 400 µL Na-Butyrate, Fa. Sigma Aldrich B5887-5G, 250 mg in 2.27 mL MilliQ water). After 24 hours in the incubator the medium was vacuumed off and 1.5 mL transport buffer was added and incubated for 10 min. The transport buffer contains the following ingredients: 500 mL HBSS (Hank's balanced salt solution, Hyclone, SH30268.01), 5 mL HEPES buffer (4-(2-hydroxyethyl)-1-piperazine-ethanesulfonic acid, Gibco 15630-056) and 3.9 mL glucose (Sigma, G8270-100, 90 g/200mL MilliQ water). All test items were prepared in transport buffer at a final concentration of 100 µM from stock solutions (180 to 500 mM concentration). The OATP1B3 HEK 293 cells were incubated with test solutions (test item in transport buffer 500 µL) for 40min on a thermoshaker without shaking (PHMP, Fa. Grant Bio). Triplicates were performed for each test item. After incubation the cells were washed with 2 mL of cold PBS (+) buffer (Dulbeccos PBS +, Fa. Gibco). […] As a reference standard Gd-EOB-DTPA (gadoxetate) is used in the same well plate. The OATP1B3 HEK 293 uptake of the test compound is calculated relative to gadoxetate (resulting in the unit % of RC1).

Substance	Inhibition Rifampicine [1] [% inhibition]	Solubility [2] [mM]	Uptake into OATP1B3-HEK 293 cells [3]
Gadolinium-2,2',2"-[(2S)-2-(4-butoxybenzyl)-10-(carboxymethyl)-1,4,7,10-tetraaza cyclododecane-1,4,7-triyl]triacetate [Example 13]	98	> 43	383 % of RC1
Gadolinium-2,2',2"-[10-(carboxymethyl)-2-(4-ethoxybenzyl)-1,4,7,10-tetraazacyclododecane-1,4,7-triyl]triacetate [Example 8]	99	–	94 % of RC1
Gadolinium-2,2',2"-[(2S)-10-(carboxymethyl)-2-(4-ethoxybenzyl)-1,4,7,10-tetraazacyclododecane-1,4,7-triyl]triacetate [Example 10]	96	> 23	80 % of RC1
Gadolinium-2,2',2"-[(2S)-10-(carboxymethyl)-2-(4-ethoxybenzyl)-1,4,7,10-tetraazacyclododecane-1,4,7-triyl]triacetate [Example 11]	90	> 146	32 % of RC1
Gadolinium-2,2',2"-[(2S)-2-(4-butoxybenzyl)-10-(carboxymethyl)-1,4,7,10-tetraaza cyclododecane-1,4,7-triyl]triacetate [Example 12]	98	211	66 % of RC1
Gadolinium-2,2',2"-[10-(carboxymethyl)-2-(4-ethoxybenzyl)-1,4,7,10-tetraazacyclododecane-1,4,7-triyl]triacetate [Example 9]	94	> 145	13 % of RC1
